Results on 23 compounds are retold here after patent EP0812825B1, “PROPENONE DERIVATIVES” (KYOWA HAKKO KOGYO CO., LTD., priority 1995, dated 1997).

For experiment [1], the system named is HeLa S3 cells. Kind of experiment: HeLa S3 cell growth inhibition test (neutral red staining). Conditions: Homo sapiens; HeLa S3, 72 hours culture with compound. Type of experiment: cell-based. On the procedure: Test Example 1: HeLa S3 Cell Growth Inhibition Test
Each 0.1 ml of HeLa S3 cells which had been prepared to 3 x 10^4 cells/ml using a medium consisting of MEM medium, 10% fetal bovine serum, and 2 mM glutamine was distributed in each well of 96 well-microtiter plate.
HeLa S3 was cultured at 37°C for one night in a CO2 incubator, each 0.05 ml of test compounds which had been appropriately diluted with the culture solution was added thereto, and the mixture was cultured at 37°C for 72 hours in a CO2 incubator. Supernatant was removed, each 0.1 ml of the culture solution containing 0.02% neutral red was added to the residue, the mixture was incubated at 37°C for one hour in a CO2 incubator, and the cells were stained. Supernatant was removed and the residue was washed once with physiological saline. Then, the pigment was extracted with 0.001 N hydrochloric acid/30% ethanol and the absorbance at 550 nm was measured by a microplatereader. A concentration of the test compound (IC50) at which the growth of cell is inhibited by 50% was calculated by comparing the absorbance of non-treated cells and that of cells treated with a predetermined concentration of the test compound.

Experiment [2] deals with anti-Trinitrophenol (TNP) Antibody Production. Kind of experiment: Effect against anti-trinitrophenol (TNP) antibody production (serum ELISA). The experiment is classed as in vivo, BALB/c mice. On the procedure:
Mice which were used for the effect against delayed type hypersensitivity footpad reaction were bled, the sera were separated by centrifugation at 3000rpm at 4°C for 10 minutes, and then anti-TNP antibody titer was measured. For measuring anti-TNP antibody, enzyme-linked immunosorbent assay (ELISA) was used. […] Peroxidase labeled anti-mouse IgG+IgA+IgM (American Qualex International, Inc.) was added and bound to anti-TNP antibody in culture supernatant which was bound to plate. Orthophenylenediamine (Wako Pure Chemical Industries, Ltd) solution containing hydrogen peroxide (Wako Pure Chemical Industries, Ltd) was added and enzyme reaction was started. After sufficient coloring, coloring reaction was stopped by addition of 10% […] (Wako Pure Chemical Industries, Ltd) and absorbance at 490nm was measured by immunoreader (Intermed Japan, NJ-2000).
Suppression rate of anti-TNP antibody production by test compound was calculated according to the following equation.
(An ELISA detects its analyte on a solid surface through an enzyme-linked reagent.)

Experiment [3] relates to Delayed Type Hypersensitivity Footpad Reaction. Kind of experiment: Effect against delayed type hypersensitivity footpad reaction (TNBS-immunized mice). The experiment is classed as in vivo, BALB/c mice. On the procedure: Male BALB/c mice (8-weeks-old, Charles River Japan Inc.) were immunized by intradermally injection in the dorsal flank of 100 µl of 10mM 2,4,6-trinitrobenzenesulfonic acid (TNBS) in saline. Five mice were used in each group, that is, control group [0.5% methylcellulose containing 10% dimethyl sulfoxide (DMSO)-administered group], Cyclosporine A (Sandoz)-administered group, and test compound-administered group wherein a determined concentration of test compound suspended in 0.5% methylcellulose containing 10% DMSO was administered. Each of Cyclosporine A and test compound was intraperitoneally administered 30 minutes before and once a day for 4 days after immunization. 50 µl of 10mM TNBS was intradermally injected as a challenging antigen 5 days after immunization when antigen-sensitization was developed. Thickness of both footpads of each animal in each dose of test compound-administered group was measured with a dial thickness gauge 18 hours after antigen challenge, and the value of the difference in thickness of left and right footpad (T) was determined. On the other hand, thickness of both footpads in control group was measured, and the value of the difference in thickness of left and right footpad (C) was determined. Suppression rate in footpad reaction was calculated as [(C - T)/C] x 100.

In experiment [4] the test system is T-Cell Proliferation. The experiment can be described thus: T-cell proliferation inhibitory test using mouse mixed lymphocyte reaction (MLR), [3H]-thymidine incorporation. Conditions: 72 hours. The experiment is classed as cell-based. On the procedure: Test Example 5: T-Cell Proliferation Inhibitory Test Using Mouse Mixed Lymphocyte Reaction (MLR)
Spleen was sterilly removed from C3H/He mouse and single cell suspension was prepared. This suspension was irradiated with 2000R X-ray and adjusted into 8 x 10^6 cells/ml. 50 µl of lymph-node cells of BALB/c mouse (containing 2 x 10^5 cells), 50 µl of X-ray irradiated spleen cell suspension of C3H/He mouse (containing 4 x 10^5 cells), and 50 µl of determined concentration of test compound solution were added in each well of 96 well microtiter plate and cultured at 37°C for 72 hours in the CO2 incubator. Eight hours before the end of culture, [^3H]-Thymidine (1.85 KBq) was added. At the end of culture, cells were trapped. on the filter paper by cell harvester and dried. Toluene type scintillator was added and radioactivity of [^3H]-Thymidine incorporated into cells was measured by liquid scintillation counter.
Suppression rate of T-cell proliferation was calculated according to the following equation. Suppression rate (%) =((Radioactivity in control group) - (Radioactivity in test group))/((Radioactivity in control group) - (Radioactivity in X-ray irradiated C3H/He+Radioactivity in Balb/c))× 100 [formula]
For orientation: Dividing cells build labelled thymidine or BrdU into new DNA.

Setting [5] is: dose 3.0 mg/kg x 5, intraperitoneally.
Setting [6] is: dose 10 mg/kg x 5, intraperitoneally.

A word on the IC50: it is the point on the concentration scale where inhibition reaches its midpoint.

Consider `COc1cc(C(=O)/C(=C/c2c[nH]c3ccccc23)Oc2ccc(Br)cc2)cc(OC)c1OC` [Compound 8, (Z)-2-(4-Bromophenoxy)-3-(indol-3-yl)-1-(3,4,5-trimethoxyphenyl)-2-propen-1-one], for which the IC50 in experiment [1] was 62 nM. In the case of `CO/C(=C\c1c[nH]c2ccccc12)C(=O)c1cc(OC)c(OC)c(OC)c1` [Compound 1, (Z)-3-(Indol-3-yl)-2-methoxy-1-(3,4,5-trimethoxyphenyl)-2-propen-1-one], the IC50 in experiment [1] turned out to be 2.4 nM.

As to `CCc1ccc2c(/C=C(\SCC(O)CO)C(=O)c3cc(OC)c(OC)c(OC)c3)c[nH]c2c1` (stereo not drawn) [Compound 29, (Z)-2-(2,3-Dihydroxypropylthio)-3-(6-ethylindol-3-yl)-1-(3,4,5-trimethoxyphenyl)-2-propen-1-one], the IC50 in experiment [1] was found to be 18 nM. In the case of `COc1cc(C(=O)C(=Cc2c[nH]c3ccccc23)SCC(O)C(O)CO)cc(OC)c1OC` [Compound 35, 3-(Indol-3-yl)-2-[(2S),(3R)-2,3,4-trihydroxybutylthio]-1-(3,4,5-trimethoxyphenyl)-2-propen-1-one], in experiment [1], the half-maximal inhibitory concentration (IC50) is 4.4 nM. The same measure, in the same setting: with `COc1cc(C(=O)/C(=C/c2c[nH]c3ccccc23)OC(C)C)cc(OC)c1OC` [Compound 4, (Z)-2-Isopropyloxy-3-(indol-3-yl)-1-(3,4,5-trimethoxyphenyl)-2-propen-1-one] the figure was 3.7 nM. For the compound `COc1cc(C(=O)/C(=C/c2c[nH]c3ccccc23)SCC(O)CO)cc(OC)c1OC` (stereo not drawn) [Compound 21, (Z)-2-(2,3-Dihydroxypropylthio)-3-(indol-3-yl)-1-(3,4,5-trimethoxyphenyl)-2-propen-1-one], the “Suppression rate(%)” value is 15 (3.0) % in experiment [2] (setting [5]), 57 (10) % in experiment [2] (setting [6]), 8.5 (3.0) % in experiment [3] (setting [5]) and 69 (10) % in experiment [3] (setting [6]). Moreover, the IC50 in experiment [1] amounted to 4.8 nM. The inhibition at 0.1 µM in experiment [4] (concentration 10^-7 M, read-out: Suppression rate(%)) was found to be 107%. Besides, the inhibition at 0.01 µM in experiment [4] (concentration 10^-8 M, read-out: Suppression rate(%)) was determined as 106%. Also, in experiment [4] (concentration 10^-9 M, read-out: Suppression rate(%) (converted)), the inhibition at 0.001 µM was 7.8%.

As to `COc1cc(C(=O)/C(=C/c2c[nH]c3ccccc23)CCC(O)CO)cc(OC)c1OC` (stereo not drawn) [Compound 19, (E)-2-(3,4-Dihydroxybutyl)-3-(indol-3-yl)-1-(3,4,5-trimethoxyphenyl)-2-propen-1-one], the IC50 in experiment [1] is 2.1 nM. Consider `COc1cc(C(=O)/C(=C/c2c[nH]c3cc(C)ccc23)SCCO)cc(OC)c1OC` [Compound 13, (Z)-2-(2-Hydroxyethylthio)-3-(6-methylindol-3-yl)-1-(3,4,5-trimethoxyphenyl)-2-propen-1-one], for which the 50% inhibitory concentration (IC50) in experiment [1] was found to be 2.5 nM.

Consider `COC(=O)CS/C(=C\c1c[nH]c2ccccc12)C(=O)c1cc(OC)c(OC)c(OC)c1` [Compound 16, (Z)-3-(Indol-3-yl)-2-methoxycarbonylmethylthio-1-(3,4,5-trimethoxyphenyl)-2-propen-1-one], for which the half-inhibitory concentration (IC50) in experiment [1] worked out at 4.7 nM.

As for `COc1cc(C(=O)C(=Cc2c[nH]c3cc(C)ccc23)SC[C@@H](O)[C@H](O)CO)cc(OC)c1OC` [Compound 36, 3-(6-Methylindol-3-yl)-2-[(2S),(3R)-2,3,4-trihydroxybutylthio]-1-(3,4,5-trimethoxyphenyl)-2-propen-1-one], the IC50 in experiment [1] was 5.3 nM. Same read-out and setting: with `COc1cc(C(=O)/C(=C/c2c[nH]c3cc(C)ccc23)CCC(O)CO)cc(OC)c1OC` (stereo not drawn) [Compound 20, (E)-2-(3,4-Dihydroxybutyl)-3-(6-methylindol-3-yl)-1-(3,4,5-trimethoxyphenyl)-2-propen-1-one] the figure was 5.6 nM; with `COc1cc(C(=O)/C(=C/c2c[nH]c3cc(Cl)ccc23)SCC(O)CO)cc(OC)c1OC` (stereo not drawn) [Compound 31, (Z)-3-(6-Chloroindol-3-yl)-2-(2,3-dihydroxypropylthio)-1-(3,4,5-trimethoxyphenyl)-2-propen-1-one], 7.2 nM. `COc1cc(C(=O)/C(=C/c2c[nH]c3ccccc23)SC)cc(OC)c1OC` [Compound 9, (Z)-3-(Indol-3-yl)-2-methylthio-1-(3,4,5-trimethoxyphenyl)-2-propen-1-one]: the IC50 in experiment [1] amounted to 2.2 nM.

Regarding `COc1cc(C(=O)/C(=C/c2c[nH]c3cc(F)ccc23)SCC(O)CO)cc(OC)c1OC` (stereo not drawn) [Compound 32, (Z)-2-(2,3-Dihydroxypropylthio)-3-(6-fluoroindol-3-yl)-1-(3,4,5-trimethoxyphenyl)-2-propen-1-one], the 50% inhibitory concentration (IC50) in experiment [1] was found to be 5.9 nM.

On to `COc1cc(C(=O)/C(=C/c2c[nH]c3cccc(C)c23)SCC(O)CO)cc(OC)c1OC` (stereo not drawn) [Compound 23, (Z)-2-(2,3-Dihydroxypropylthio)-3-(4-methylindol-3-yl)-1-(3,4,5-trimethoxyphenyl)-2-propen-1-one], for which the IC50 in experiment [1] was 19 nM.

For `COc1cc(C(=O)C(=Cc2c[nH]c3cc(C)ccc23)SC[C@H](O)[C@@H](O)CO)cc(OC)c1OC` [Compound 37, 3-(6-Methylindol-3-yl)-2-[(2R),(3S)-2,3,4-trihydroxybutylthio)-1-(3,4,5-trimethoxyphenyl)-2-propen-1-one], in experiment [1], the IC50 turned out to be 7.1 nM. On to `CCO/C(=C\c1c[nH]c2ccccc12)C(=O)c1cc(OC)c(OC)c(OC)c1` [Compound 2, (Z)-2-Ethoxy-3-(indol-3-yl)-1-(3,4,5-trimethoxyphenyl)-2-propen-1-one], for which the IC50 in experiment [1] came out at 2.5 nM. Regarding `COc1cc(C(=O)/C(=C/c2c[nH]c3ccc(F)cc23)SCC(O)CO)cc(OC)c1OC` (stereo not drawn) [Compound 27, (Z)-2-(2,3-Dihydroxypropylthio)-3-(5-fluoroindol-3-yl)-1-(3,4,5-trimethoxyphenyl)-2-propen-1-one], the IC50 in experiment [1] amounted to 6.3 nM. For `COc1cc(C(=O)/C(=C/c2c[nH]c3cccc(Cl)c23)SCC(O)CO)cc(OC)c1OC` (stereo not drawn) [Compound 24, (Z)-3-(4-Chloroindol-3-yl)-2-(2,3-dihydroxypropylthio)-1-(3,4,5-trimethoxyphenyl)-2-propen-1-one], the IC50 in experiment [1] came to 15 nM.

On to `CCCO/C(=C\c1c[nH]c2ccccc12)C(=O)c1cc(OC)c(OC)c(OC)c1` [Compound 3, (Z)-3-(Indol-3-yl)-2-propyloxy-1-(3,4,5-trimethoxyphenyl)-2-propen-1-one], for which the IC50 in experiment [1] is 13 nM. On to `COc1cc(C(=O)/C(=C/c2cn(C)c3ccccc23)SCC(O)CO)cc(OC)c1OC` (stereo not drawn) [Compound 22, (Z)-2-(2,3-Dihydroxypropylthio)-3-(1-methylindol-3-yl)-1-(3,4,5-trimethoxyphenyl)-2-propen-1-one], for which, in experiment [1], the IC50 worked out at 20 nM. Regarding `COc1cc(C(=O)/C(=C/c2c[nH]c3cc(C)ccc23)SCC(O)CO)cc(OC)c1OC` (stereo not drawn) [Compound 28, (Z)-2-(2,3-Dihydroxypropylthio)-3-(6-methylindol-3-yl)-1-(3,4,5-trimethoxyphenyl)-2-propen-1-one], the IC50 in experiment [1] was determined as 6.3 nM. Turning to `COc1cc(C(=O)/C(=C/c2c[nH]c3ccccc23)Oc2ccccc2C)cc(OC)c1OC` [Compound 7, (Z)-3-(Indol-3-yl)-2-(2-methylphenoxy)-1-(3,4,5-trimethoxyphenyl)-2-propen-1-one], the IC50 in experiment [1] came to 68 nM.
